Experimental data from ChEMBL document CHEMBL1909046, “DrugMatrix in vitro pharmacology data”.
*1 amine or outer side, *2 acyl side, *3 side chain or, on linkers, in order; H or OH if unused. Where a SMILES comes first, the peptide text is derived from it. Bridges are numbered along the chain shown (N, C = ends). Roman numbers before positions name the chains, in order. [ ]: non-standard residue; d: D form. Actinocin(1to9) = Cc1c2oc3c(C)ccc(C(=O)[*:2])c3nc-2c(C(=O)[*:1])c(N)c1=O; NMeV = CN[C@H](C(=O)O)C(C)C; Sar = CNCC(=O)O

Tests used:
[1] = molecular target: Sodium-dependent dopamine transporter (Homo sapiens, UniProt Q01959); assay: DRUGMATRIX: Dopamine Transporter radioligand binding (ligand: [125I] RTI-55); assay type: cell membranes, CHO-K1, Membrane; conditions: Not Active = under 50% inhibition at 10 µM; for Ki: read-out: Ki
Melanocortin receptor 4 = Melanocortin receptor 4 (Homo sapiens, UniProt P32245); assay type: cell membranes, HEK293, Membrane; conditions: hek293; also: in other assays of this panel Not Active means under 50% inhibition at 10 µM
Mu-type opioid receptor = Mu-type opioid receptor (Homo sapiens, UniProt P35372); assay: DRUGMATRIX: Opiate mu (OP3, MOP) radioligand binding (ligand: [3H] Diprenorphine); assay type: cell membranes, CHO-K1, Membrane; conditions: Not Active = under 50% inhibition at 10 µM
[2] = molecular target: Mitogen-activated protein kinase 14 (Homo sapiens, UniProt Q16539); design: species or system Escherichia coli;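 also: inhibition of p38alpha enzyme activity in a biochemical kinase assay, with myelin basic protein serving as substrate; in other assays of this panel Not Active means under 50% inhibition at 10 µM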
[3] = molecular target: Tyrosine-protein kinase Fyn (Homo sapiens, UniProt P06241); assay: biochemical; assay type: cell-based, Insect cells;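 also: enzymatic inhibition of Fyn kinase activity measured with Poly(Glu:Tyr) as the phosphorylation substrate; in other assays of this panel Not Active means under 50% inhibition at 10 µM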
Estrogen receptor beta = Estrogen receptor beta (Homo sapiens, UniProt Q92731); conditions: sf9; also: in other assays of this panel Not Active means under 50% inhibition at 10 µM
Sequence of Estrogen receptor beta (Q92731 whole entry): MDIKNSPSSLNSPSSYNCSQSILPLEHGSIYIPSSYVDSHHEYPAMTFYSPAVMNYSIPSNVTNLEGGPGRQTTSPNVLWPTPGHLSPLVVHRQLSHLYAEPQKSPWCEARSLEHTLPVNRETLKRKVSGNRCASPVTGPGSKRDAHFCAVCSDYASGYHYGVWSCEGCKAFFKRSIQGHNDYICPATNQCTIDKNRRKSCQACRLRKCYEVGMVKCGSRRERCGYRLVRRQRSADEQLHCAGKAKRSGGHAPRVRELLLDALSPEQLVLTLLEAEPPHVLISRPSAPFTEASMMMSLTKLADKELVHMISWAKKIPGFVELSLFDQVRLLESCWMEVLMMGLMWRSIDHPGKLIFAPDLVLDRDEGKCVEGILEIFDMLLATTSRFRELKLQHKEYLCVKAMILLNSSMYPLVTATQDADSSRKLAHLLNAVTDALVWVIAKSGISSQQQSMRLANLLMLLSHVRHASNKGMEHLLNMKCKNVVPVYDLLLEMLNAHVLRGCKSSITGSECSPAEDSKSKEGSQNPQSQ

Sequence of Melanocortin receptor 4 (P32245 whole entry): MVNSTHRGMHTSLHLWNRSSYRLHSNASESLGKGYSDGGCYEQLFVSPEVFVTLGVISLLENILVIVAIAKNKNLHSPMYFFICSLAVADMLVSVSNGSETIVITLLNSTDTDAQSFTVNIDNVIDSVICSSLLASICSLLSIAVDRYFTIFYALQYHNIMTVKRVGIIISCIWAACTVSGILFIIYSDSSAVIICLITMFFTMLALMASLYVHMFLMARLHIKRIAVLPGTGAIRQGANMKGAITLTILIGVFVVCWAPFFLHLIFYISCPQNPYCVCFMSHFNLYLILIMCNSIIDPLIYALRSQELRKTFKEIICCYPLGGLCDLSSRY
Sequence of Mu-type opioid receptor (P35372 whole entry): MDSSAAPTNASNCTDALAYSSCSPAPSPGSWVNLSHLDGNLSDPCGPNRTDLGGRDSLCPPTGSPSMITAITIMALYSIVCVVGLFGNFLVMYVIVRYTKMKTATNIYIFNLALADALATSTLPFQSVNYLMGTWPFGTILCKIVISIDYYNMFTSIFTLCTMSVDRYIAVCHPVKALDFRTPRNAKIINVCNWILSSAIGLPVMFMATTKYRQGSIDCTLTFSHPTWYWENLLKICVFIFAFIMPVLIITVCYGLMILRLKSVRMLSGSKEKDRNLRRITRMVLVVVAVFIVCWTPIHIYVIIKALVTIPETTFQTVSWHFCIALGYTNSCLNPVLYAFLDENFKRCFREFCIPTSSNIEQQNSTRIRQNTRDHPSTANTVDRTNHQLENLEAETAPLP
Sequence of Tyrosine-protein kinase Fyn (P06241 whole entry): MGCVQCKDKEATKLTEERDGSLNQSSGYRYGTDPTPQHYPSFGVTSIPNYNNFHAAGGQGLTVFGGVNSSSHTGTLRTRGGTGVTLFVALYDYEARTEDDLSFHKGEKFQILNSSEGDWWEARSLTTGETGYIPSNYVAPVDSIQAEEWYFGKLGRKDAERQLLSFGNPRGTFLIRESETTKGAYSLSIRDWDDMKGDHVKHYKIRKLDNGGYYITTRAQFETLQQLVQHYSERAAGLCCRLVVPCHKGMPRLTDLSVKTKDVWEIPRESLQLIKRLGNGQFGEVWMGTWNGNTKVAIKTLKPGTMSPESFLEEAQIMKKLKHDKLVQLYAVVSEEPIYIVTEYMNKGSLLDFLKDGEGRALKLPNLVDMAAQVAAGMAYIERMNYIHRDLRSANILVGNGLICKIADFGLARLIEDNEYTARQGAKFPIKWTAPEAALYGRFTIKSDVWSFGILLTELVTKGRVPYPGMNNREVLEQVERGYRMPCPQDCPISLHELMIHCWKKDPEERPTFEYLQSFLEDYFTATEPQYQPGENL
Sequence of Sodium-dependent dopamine transporter (Q01959 whole entry): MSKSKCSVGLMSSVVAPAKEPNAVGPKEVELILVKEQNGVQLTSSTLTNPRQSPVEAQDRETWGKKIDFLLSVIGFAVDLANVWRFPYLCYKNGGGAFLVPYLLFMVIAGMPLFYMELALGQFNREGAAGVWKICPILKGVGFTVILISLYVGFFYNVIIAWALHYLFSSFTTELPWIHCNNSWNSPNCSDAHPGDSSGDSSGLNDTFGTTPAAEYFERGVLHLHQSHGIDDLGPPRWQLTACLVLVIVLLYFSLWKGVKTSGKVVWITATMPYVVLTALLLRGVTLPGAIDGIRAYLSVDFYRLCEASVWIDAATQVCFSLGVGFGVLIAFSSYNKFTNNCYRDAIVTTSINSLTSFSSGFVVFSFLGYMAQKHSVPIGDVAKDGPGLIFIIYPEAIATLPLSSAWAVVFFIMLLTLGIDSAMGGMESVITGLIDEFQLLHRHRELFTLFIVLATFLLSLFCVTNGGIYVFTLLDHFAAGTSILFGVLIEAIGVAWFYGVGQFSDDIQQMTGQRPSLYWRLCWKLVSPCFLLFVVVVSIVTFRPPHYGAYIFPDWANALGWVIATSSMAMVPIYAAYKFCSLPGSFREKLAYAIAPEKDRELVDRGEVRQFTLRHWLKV
Sequence of Mitogen-activated protein kinase 14 (Q16539 whole entry): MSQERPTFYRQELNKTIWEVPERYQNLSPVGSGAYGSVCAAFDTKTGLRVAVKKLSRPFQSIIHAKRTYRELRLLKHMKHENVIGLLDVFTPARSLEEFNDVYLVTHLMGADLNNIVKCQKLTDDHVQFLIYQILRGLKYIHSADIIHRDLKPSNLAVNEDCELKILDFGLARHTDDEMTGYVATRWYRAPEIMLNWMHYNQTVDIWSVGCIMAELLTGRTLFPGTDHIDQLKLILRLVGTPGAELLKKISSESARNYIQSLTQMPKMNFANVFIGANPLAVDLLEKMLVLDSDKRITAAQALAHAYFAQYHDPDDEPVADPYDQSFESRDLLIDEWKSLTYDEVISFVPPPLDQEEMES

Row | Structure (SMILES) | IC50 ([1]; cho-k1) | IC50 (Melanocortin receptor 4) | IC50 (Mu-type opioid receptor; cho-k1) | IC50 [2] | IC50 ([3]; insect cells) | IC50 (Estrogen receptor beta) | IC50 ([1]; read-out: IC50) | Ki [1] | IC50 ([2]; read-out: IC50) | IC50 ([3]; read-out: IC50) | Ki (Mu-type opioid receptor) | IC50 (Mu-type opioid receptor; read-out: IC50)
1 | CC(C)C(Br)C(=O)NC(N)=O (stereo not given) [BROMISOVALUM] | Not Active | Not Active | Not Active | Not Active | Not Active | Not Active |  |  |  |  |  | 
2 | CCCC1O[C@@H]2C[C@H]3[C@@H]4CCC5=CC(=O)C=C[C@]5(C)[C@H]4[C@@H](O)C[C@]3(C)[C@]2(C(=O)CO)O1 (stereo not given in full) [BUDESONIDE] | Not Active | Not Active | Not Active | Not Active | Not Active | Not Active |  |  |  |  |  | 
3 | CN(Cc1ccc(C(C)(C)C)cc1)Cc1cccc2ccccc12 [BUTENAFINE] | Not Active | Not Active | Not Active | Not Active | Not Active | Not Active |  |  |  |  |  | 
4 | C[C@H](CS)C(=O)N1CCC[C@H]1C(=O)O [CAPTOPRIL] | Not Active | Not Active | Not Active | Not Active | Not Active | Not Active |  |  |  |  |  | 
5 | Cc1cc(C2CCCCC2)n(O)c(=O)c1 [CICLOPIROX] | Not Active | Not Active | Not Active | Not Active | Not Active | Not Active |  |  |  |  |  | 
6 | Cc1cc(C(C#N)c2ccc(Cl)cc2)c(Cl)cc1NC(=O)c1cc(I)cc(I)c1O (stereo not given) [CLOSANTEL] |  | Not Active | Not Active |  |  | Not Active | 4800 nM | 3800 nM | 656 nM | 939 nM |  | 
7 | Cc1onc(-c2ccccc2Cl)c1C(=O)N[C@@H]1C(=O)N2[C@@H]1SC(C)(C)[C@@H]2C(=O)O [CLOXACILLIN] | Not Active | Not Active | Not Active | Not Active | Not Active | Not Active |  |  |  |  |  | 
8 | CC1CC(OC(=O)C(O)c2ccccc2)CC(C)(C)C1 (stereo not given) [CYCLANDELATE] | Not Active | Not Active | Not Active | Not Active | Not Active | Not Active |  |  |  |  |  | 
9 | Cc1c2oc3c(C)ccc(C(=O)N[C@@H]4C(=O)N[C@H](C(C)C)C(=O)N5CCC[C@H]5C(=O)N(C)CC(=O)N(C)[C@@H](C(C)C)C(=O)O[C@@H]4C)c3nc-2c(C(=O)N[C@@H]2C(=O)N[C@H](C(C)C)C(=O)N3CCC[C@H]3C(=O)N(C)CC(=O)N(C)[C@@H](C(C)C)C(=O)O[C@@H]2C)c(N)c1=O [DACTINOMYCIN] (I: T[dV]P[Sar][NMeV] / II: T[dV]P[Sar][NMeV]; ester I:1-I:C, II:1-II:C; linker I:N-II:N via Actinocin(1to9)) | Not Active | Not Active | Not Active | Not Active | Not Active | Not Active |  |  |  |  |  | 
10 | Cc1c(O)c(=O)ccn1C [DEFERIPRONE] | Not Active | Not Active | Not Active | Not Active | Not Active | Not Active |  |  |  |  |  | 
11 | O=c1oc2ccccc2c(O)c1Cc1c(O)c2ccccc2oc1=O [DICUMAROL] | Not Active | Not Active | Not Active | Not Active | Not Active | Not Active |  |  |  |  |  | 
12 | C[C@H]1O[C@@H](O[C@H]2[C@@H](O)C[C@H](O[C@H]3[C@@H](O)C[C@H](O[C@H]4CC[C@@]5(C)[C@H](CC[C@@H]6[C@@H]5C[C@@H](O)[C@]5(C)[C@@H](C7=CC(=O)OC7)CC[C@]65O)C4)O[C@@H]3C)O[C@@H]2C)C[C@H](O)[C@@H]1O [DIGOXIN] | Not Active | Not Active | Not Active | Not Active | Not Active | Not Active |  |  |  |  |  | 
13 | CC(C)[C@@]1(NC(=O)[C@@H]2C[C@@H]3c4cccc5[nH]cc(c45)C[C@H]3N(C)C2)O[C@@]2(O)[C@@H]3CCCN3C(=O)[C@H](Cc3ccccc3)N2C1=O.CS(=O)(=O)O [DIHYDROERGOCRISTINE MESYLATE] | Not Active | Not Active |  | Not Active | Not Active | Not Active |  |  |  |  | 345 nM | 850 nM
14 | O=C(CCCN1CC=C(n2c(=O)[nH]c3ccccc32)CC1)c1ccc(F)cc1 [DROPERIDOL] | Not Active | Not Active | Not Active | Not Active | Not Active | Not Active |  |  |  |  |  | 
15 | CC(C)[C@H]1C(=O)N2CCC[C@H]2[C@]2(O)O[C@](NC(=O)[C@@H]3C=C4c5cccc6[nH]cc(c56)C[C@H]4N(C)C3)(C(C)C)C(=O)N12 [ERGOCORNINE] | Not Active | Not Active | Not Active | Not Active | Not Active | Not Active |  |  |  |  |  | 
16 | OC(Cn1cncn1)(Cn1cncn1)c1ccc(F)cc1F [FLUCONAZOLE] | Not Active | Not Active | Not Active | Not Active | Not Active | Not Active |  |  |  |  |  | 
17 | CC(C)C(=O)Nc1ccc([N+](=O)[O-])c(C(F)(F)F)c1 [FLUTAMIDE] | Not Active | Not Active | Not Active | Not Active | Not Active | Not Active |  |  |  |  |  | 
18 | CC1(C)O[C@@H]2C[C@H]3[C@@H]4CCC5=CC(=O)CC[C@]5(C)[C@@]4(F)[C@@H](O)C[C@]3(C)[C@]2(C(=O)CCl)O1 [HALCINONIDE] | Not Active | Not Active | Not Active | Not Active | Not Active | Not Active |  |  |  |  |  | 
19 | O=c1[nH]c(=O)n([C@H]2C[C@H](O)[C@@H](CO)O2)cc1I [IDOXURIDINE] | Not Active | Not Active | Not Active | Not Active | Not Active | Not Active |  |  |  |  |  | 

Row | Structure (SMILES) | IC50 ([1]; cho-k1) | IC50 (Melanocortin receptor 4) | IC50 (Mu-type opioid receptor; cho-k1) | IC50 [2] | IC50 ([3]; insect cells) | IC50 (Estrogen receptor beta) | IC50 ([1]; read-out: IC50) | Ki [1] | IC50 ([2]; read-out: IC50) | IC50 ([3]; read-out: IC50) | Ki (Mu-type opioid receptor) | IC50 (Mu-type opioid receptor; read-out: IC50)
20 | CC1Cc2ccccc2N1NC(=O)c1ccc(Cl)c(S(N)(=O)=O)c1 (stereo not given) [INDAPAMIDE] | Not Active | Not Active | Not Active | Not Active | Not Active | Not Active |  |  |  |  |  | 
21 | CCC(C)n1ncn(-c2ccc(N3CCN(c4ccc(OCC5COC(Cn6cncn6)(c6ccc(Cl)cc6Cl)O5)cc4)CC3)cc2)c1=O (stereo not given) [ITRACONAZOLE] | Not Active | Not Active | Not Active | Not Active |  | Not Active |  |  |  | 3890 nM |  | 
22 | CCCCN1CCCC[C@H]1C(=O)Nc1c(C)cccc1C [LEVOBUPIVACAINE] | Not Active | Not Active | Not Active | Not Active | Not Active | Not Active |  |  |  |  |  | 
23 | CCCCc1nc(Cl)c(CO)n1Cc1ccc(-c2ccccc2-c2nnn[nH]2)cc1 [LOSARTAN] | Not Active | Not Active | Not Active | Not Active | Not Active | Not Active |  |  |  |  |  | 
24 | Sc1ncnc2nc[nH]c12 [MERCAPTOPURINE ANHYDROUS] | Not Active | Not Active | Not Active | Not Active | Not Active | Not Active |  |  |  |  |  | 
25 | Cc1ccccc1N1C(=O)c2cc(S(N)(=O)=O)c(Cl)cc2NC1C (stereo not given) [METOLAZONE] | Not Active | Not Active | Not Active | Not Active | Not Active | Not Active |  |  |  |  |  | 
26 | COCCc1ccc(OCC(O)CNC(C)C)cc1 (stereo not given) [METOPROLOL] | Not Active | Not Active | Not Active | Not Active | Not Active | Not Active |  |  |  |  |  | 
27 | CCn1cc(C(=O)O)c(=O)c2cc(F)c(N3CCNCC3)cc21 [NORFLOXACIN] | Not Active | Not Active | Not Active | Not Active | Not Active | Not Active |  |  |  |  |  | 
28 | NC1=NC(=O)C(c2ccccc2)O1 (stereo not given) [PEMOLINE] |  | Not Active | Not Active | Not Active | Not Active | Not Active | 521 nM | 414 nM |  |  |  | 
29 | Nc1nc2c(ncn2CCC(CO)CO)c(=O)[nH]1 [PENCICLOVIR] | Not Active | Not Active | Not Active | Not Active | Not Active | Not Active |  |  |  |  |  | 
30 | C=C(C)C1(O)OC(=O)C=C1OC (stereo not given) [PENICILLIC ACID] | Not Active | Not Active | Not Active | Not Active | Not Active | Not Active |  |  |  |  |  | 
31 | CC1(C)S[C@@H]2[C@H](NC(=O)Cc3ccccc3)C(=O)N2[C@H]1C(=O)O [PENICILLIN G] | Not Active | Not Active | Not Active | Not Active | Not Active | Not Active |  |  |  |  |  | 
32 | CCCN1C[C@H](CSC)C[C@@H]2c3cccc4[nH]cc(c34)C[C@H]21 [PERGOLIDE] | Not Active | Not Active | Not Active | Not Active | Not Active | Not Active |  |  |  |  |  | 
33 | C1CCC(C(CC2CCCCN2)C2CCCCC2)CC1 (stereo not given) [PERHEXILINE] | Not Active | Not Active | Not Active | Not Active |  | Not Active |  |  |  | 4060 nM |  | 
34 | CCOc1ccc(NC(C)=O)cc1 [PHENACETIN] | Not Active | Not Active | Not Active | Not Active | Not Active | Not Active |  |  |  |  |  | 
35 | Cc1ccc(N(CC2=NCCN2)c2cccc(O)c2)cc1 [PHENTOLAMINE] | Not Active | Not Active | Not Active | Not Active | Not Active | Not Active |  |  |  |  |  | 
36 | CNNCc1ccc(C(=O)NC(C)C)cc1 [PROCARBAZINE] | Not Active | Not Active | Not Active | Not Active | Not Active | Not Active |  |  |  |  |  | 
37 | CN(C)CCCN1c2ccccc2Sc2ccccc21 [PROMAZINE] | Not Active | Not Active | Not Active | Not Active | Not Active | Not Active |  |  |  |  |  | 
